From patent US12358921B2, “Antiviral heterocyclic compounds” (priority 2022, dated 2025)

Assays:
[1] = test system: hMPV A2 TN/94-49; assay: HMPV antiviral assay Method 1 (LLC-MK2 cells, ATP-Lite); format: cell-based; conditions: hMPV A2 TN/94-49, LLC-MK2 cells
In short: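 LLC-MK2 cells infected in suspension with hMPV A2 TN/94-49 at MOI 0.005, 5,000 cells/well, in serum-free OptiMEM with 2 μg/mL TPCK-trypsin (final) and CaCl2; compounds in duplicate, 10 points, 2 μM top, 2.5-fold dilutions. After 7 days at 37 °C, cell health by ATP-Lite luminescence; EC50 by four-parameter fit.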

[2] = test system: hMPV A2 TN/94-49; assay: HMPV antiviral assay Method 2 (LLC-MK2 cells with CP-100-356, ATP-Lite); format: cell-based; conditions: hMPV A2 TN/94-49, LLC-MK2 cells, 4 μM CP-100-356, Method 2
In short: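 LLC-MK2 cells infected in suspension with hMPV A2 TN/94-49 at MOI 0.16, in serum-free OptiMEM with final 2 μg/mL TPCK-trypsin and 2 μM CP-100-356 (P-gp inhibitor). Compounds tested in duplicate, top 200 nM, 2.5-fold, 10 points; 7 days at 37 °C. ATP-Lite cell health normalised to controls; EC50 by four-parameter fit.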

[3] = test system: HUMAN RSV-A (“LONG” STRAIN); assay: RSV-A assay (CPE, ATPlite) in Hep-2 cells; format: cell-based; conditions: human respiratory syncytial virus, 120 h, MOI 0.1, 5-day incubation
In short: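 Hep-2 cells (8,000/well) given 2-fold serial compound dilutions in duplicate, then infected with RSV-A Long strain at MOI 0.1. After 5 days, virus-induced cytopathic effect quantified as cellular ATP by ATPlite luminescence, against virus-only and uninfected controls; EC50 reported in ranges.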

[4] = test system: HRSV; conditions: prophylactic use, high risk infants; cited from earlier work

| Molecule | EC50 [1] | EC50 [2] | EC50 [3] | effective in reducing hospitalizations [4] |
| --- | --- | --- | --- | --- |
| Palivizumab |  |  |  | 60% |
| COc1cc(C(=O)NC[C@@](O)(c2cccc(F)c2)c2cc3c(c(-c4ccc5c(c4Cl)OC(F)(F)O5)n2)OC[C@]3(C)C(N)=O)cc2cn(C(F)F)nc12 [Example 276] | < 500 nM | < 200 nM | < 200 nM |  |
| COc1cc(C(=O)NC[C@@](O)(c2ccccc2)c2cc3c(c(-c4ccc(F)c(Cl)c4Cl)n2)OC[C@]3(C)C(N)=O)cc2cc(C3CC3)nnc12 [Example 290] | < 500 nM | < 200 nM | < 200 nM |  |

The next lines start with results.

| EC50 [1] | EC50 [2] | EC50 [3] | Molecule | effective in reducing hospitalizations [4] |
| --- | --- | --- | --- | --- |
| < 500 nM | < 200 nM | < 200 nM | [2H]C([2H])([2H])NC(=O)[C@@]1(C)COc2c1cc([C@@](O)(CNC(=O)c1cc(OC)c3nn(C4CC4)cc3c1)c1ccccc1)nc2-c1cc(Cl)c(F)cc1F [Example 140] |  |
| < 500 nM | < 200 nM | < 200 nM | COc1cc(C(=O)NC[C@@](O)(c2ccc(F)cc2)c2cc3c(c(-c4ccc5c(c4Cl)OC(F)(F)O5)n2)OC[C@]3(C)C(N)=O)cc2cn(C3(F)CC3)nc12 [Example 263] |  |
| < 500 nM | < 200 nM | < 200 nM | COc1cc(C(=O)NC[C@@](O)(c2ccccc2)c2cc3c(c(-c4ccc(F)c(Cl)c4Cl)n2)OC[C@]3(C)C(N)=O)cc2oc(C)nc12 [Example 277] |  |
